“Also recorded” adds a separate entry of the source.
Experiments:
[1] = test system: human melanoma cells; experiment: In vivo effects of omeprazole and cisplatin on tumour growth in the human/SCID mouse model; parameters: species or system CB.17 scid/scid mice; settings: cisplatin alone, single dose 5 mg/kg i.p.
Procedure: Animals: CB.17 SCID/SCID female mice (Harlan, Italy) were used at 4-5 weeks of age and were kept under specific pathogen-free conditions. SCID mice were housed in microisolator cages, and all food, water and bedding were autoclaved prior to use.
Transplantation and growth of human tumours in SCID mice: Each mouse was injected subcutaneously (s.c.) into the right flank with 3×10^6 cells resuspended in 0.2 ml RPMI 1640 supplemented with 10% FCS. After transplantation, the size of each tumour was measured using callipers. The tumour weight was estimated according to Geran et al. (1972) using the formula:
Tumour weight (mg)=length (mm)×width^2 (min)/2.
Mice treatment: Omeprazole (Astra-Zeneca, Italy) and pantoprazole (Sigma Tau) were administered at a dose of 75 mg/kg by gavage as previously described (Watson and Smith, 2001), as a suspension in PBS1X. Lansoprazole (Pharmacia, Sweden) and rabeprazole (Janssen) were administered at a dose of 25 mg/kg by gavage as previously described (Watson and Smith, 2001), as a suspension in PBS1X.
Cisplatin (Aventis, France) was administered intraperitoneally (i.p.) at a dose of 5 mg/kg (Son and Huang 1994).
Other: unless otherwise specified, other parameters are as set out in Examples 1 and 2, above.

[2] = test system: human melanoma cells; experiment: Cytotoxic effect of omeprazole in vitro, dose response curve (Trypan blue exclusion; Live/Dead assay); format: cell-based; settings: 0.01-10 μg/ml
Procedure: Tumour cells: Human tumour cells (24 melanoma cell lines, 2 colon adenocarcinoma cell lines and 2 breast cancer cell lines) obtained from a primary tumour were cultured in buffered (with bicarbonate) or not buffered (without bicarbonate) RPMI 1640 medium enriched with 10% foetal bovine serum and antibiotics in a humidified 5% C02 and 95% air atmosphere.
Dose response curves: Tumour cells, growing in suspension, were plated at 1.5×10^5/ml, in 24 wells cell culture plate (Costar). Tumour cells growing in adherence were plated at 3×10^4 cells/well in 24 wells cell culture plate. Each dilution was tested at least in triplicate in each experiment.
Cytotoxicity assay: Cytotoxicity was evaluated using the Trypan blue exclusion method after treatment with each chemotherapeutic drug. Briefly, after treatment, cells growing in suspension were collected, centrifuged and resuspended in PBS1X. Alternatively, cells growing in adherence were collected, pooling both adherent (live) after trypsinisation and in suspension (assumed dead) cells. […] After 5 minutes, cells were loaded on a haemocytometer (Neubauer) and both live (not stained) and dead (blue stained) cells were counted under a light microscope. Cell viability was assessed calculating the percentage of dead cells using the formula: […]
Live/Dead Viability/Cytotoxicity Assay®. This assay (Molecular Probes, OR, USA) provides a two colour fluorescence cell viability assay that is based on the simultaneous determination of live and dead cells with two probes (Calcein AM and Ethidium homodimer 1) that measure two recognised parameters of cell viability—intracellular esterase activity and plasma membrane integrity. Live cells were distinguished by the presence of ubiquitous intracellular esterase activity, determined by the enzymatic conversion of the virtually non-fluorescent cell permeant Calcein AM to the intensely fluorescent calcein (ex/em 495 nm/515 nm), which is retained in the cell. […] The samples were analysed with a FACScan cytometer (Becton Dickinson) equipped with a 488 argon laser. […]

[3] = test system: human melanoma cells resistant to cisplatin; experiment: Effects of omeprazole on cisplatin resistance in vitro (cisplatin dose response curve); format: cell-based; settings: without cisplatin
Procedure: Cytotoxicity assay: Cytotoxicity was evaluated using the Trypan blue exclusion method after treatment with each chemotherapeutic drug. Briefly, after treatment, cells growing in suspension were collected, centrifuged and resuspended in PBS1X. Alternatively, cells growing in adherence were collected, pooling both adherent (live) after trypsinisation and in suspension (assumed dead) cells. Cells were thus centrifuged (10 minutes at 1500 rpm) and resuspended in PBS1X. An aliquot of the cell suspension was diluted 1:1 (v/v) with 0.4% trypan blue. After 5 minutes, cells were loaded on a haemocytometer (Neubauer) and both live (not stained) and dead (blue stained) cells were counted under a light microscope. Cell viability was assessed calculating the percentage of dead cells using the formula:
% dead cells=(no. dead cells/no. dead cells+no. live cells)×100.
Drugs: The PPIs were as in Example 1, above. Cisplatin (Aventis, France) was resuspended in PBS1X at a stock concentration of 1 mg/ml, and stored at −20° C. Both stock solutions were thawed immediately before use and not frozen again. 5-Fluorouracil (Teva Pharma, Holland) was supplied in the form of a solution at a concentration of 50 mg/ml, and was stored at r.t. as indicated by the supplier. […]

N.N.[Cl][Pt][Cl] [cisplatin]
tumour growth [1]: did not show a significant effect on tumour growth; also recorded: almost ineffective if administered alone

COc1ccc2[nH]c([S+]([O-])Cc3ncc(C)c(OC)c3C)nc2c1 (stereo not shown) [omeprazole]
cytotoxic effect (% dead cells) ([2]; buffered neutral medium pH 7.2): no apparent cytotoxic effect | cytotoxic effect (% dead cells) ([2]; not buffered, slightly acidic medium): cytotoxic in a dose-dependent manner only for tumour cells grown in slightly acidic medium; also recorded: markedly exerted a cytotoxic effect on tumour cells, in a dose-dependent manner | cytotoxic effect of omeprazole alone [3]: did not exhibit any cytotoxic effect
